{"source": "paper PMC7179198", "about": "“Chiral Pyridine-3,5-bis- (L-phenylalaninyl-L-leucinyl) Schiff Base Peptides as Potential Anticancer Agents: Design, Synthesis, and Molecular Docking Studies Targeting Lactate Dehydrogenase-A” (Molecules, 2020)", "key": {"[1]": {"molecular_target": "T1, recombinant human LDHA protein (Homo sapiens, UniProt P00338)", "T1 construct": "purchased Abcam ab93699", "experiment": "LDHA inhibition assay (colorimetric NADH kit)", "assay_type": "biochemical", "protocol": "The newly synthesized compounds 4–6 were evaluated for their ability to inhibit LDHA in comparison with galloflavin as a known isoform nonselective LDHA inhibitor [44, 45]. The choice of galloflavin as a reference was based on the fact that it is potent anticancer agent and commercially available.\nLactate dehydrogenase assay kit (Abcam, ab102526) and recombinant human LDHA protein (Abcam, ab93699) were used to assess the inhibitory effect of the tested compounds. First, we generated an NADH standard curve for colorimetric detection by measuring the OD (450 nm) at different molar amounts of NADH. The linear regression equation of the curve was derivatized in Graphpad Prism. Tested compounds were dissolved in DMSO and their inhibitory activity was assessed at 140 and 300 μM strength. Galloflavin (Sigma, SML0776) at the same molar concentration was used as a known LDH inhibitor. The master reaction mix composed of LDH assay buffer and 10 ng human LDHA […] per reaction was prepared. Tested compounds were added and the final reaction volume was adjusted to 50 μL. Absorbance at 450 nm was taken after 2–3 min (T-initial) and continued every minute for 118 min (T-final). The change in measurement over time (delta A450) was calculated as T-final minus T-initial. The amount of NADH generated by the assay between T-initial and T-final was deduced by comparing the A450 of each sample to the standard NADH standard curve. LDHA activity was calculated in milliunits per mL as the amount of NADH generated by the assay / (reaction time in minutes (118) x reaction volume in mL ([…])."}, "[2]": {"system": "MCF-7 xenografts", "experiment": "In vivo human breast cancer xenograft", "parameters": "species or system nude mice", "conditions": "MCF-7 xenograft, eight days of treatment", "text": "In this section, we developed a breast cancer animal xenograft model for the evaluation of thein vivo anticancer potential of our newly prepared compounds. […] After wards, the noticeable effects were more or less constant up to 14 days of treatment. […] Our results are in good agreement with those previously published on the in vivo anticancer potential of Schiff bases owing to apoptosis induction.\nThe breast cancer xenograft model protocol was approved by the Institutional Animal Use and Care Committee of the University of Alabama at Birmingham (50-01-05-08B). Female athymic pathogen-free nude mice (nu/nu, 4–6 weeks) were used. Firstly, MCF-7 xenografts were initiated by implanting pellets slowly releasing estrogen for two months (1.7mg 17β-estradiol/pellet) subcutaneously in the female nude mice. After 24 h, confluent MCF-7 cells were harvested, washed two times with serum-free medium, re-suspended, and injected subcutaneously (s.c.) (5 × 10^6 cells, total volume 0.2 mL) into the left inguinal area of the mice. Caliper measurement was used to measure tumor growth in two perpendicular diameters of the implant after 48 h, and its volume was determined. Mice grafted with MCF-7 were divided into different groups (7–10 mice/group). Untreated mice received the solvent only. Treated groups received different prepared derivatives as previously described."}, "[3]": {"system": "p53 ubiquitination", "experiment": "In vivo p53 ubiquitination inhibition", "text": "(§1) Several cancer prevention drugs depend mainly on the ubiquitination activities against p53 as a suppressor protein. When E3 ubiquitin protein ligase HDM2 binds to p53, the resulting mechanism is the inhibition of its ability as a transcription activator. Accordingly, the regulative mechanism is acting negatively. Therefore, blocking the p53 binding site on HDM2 provides for a better possible antitumorigenic molecule. Currently, murine double minute 2 (MDM2) is considered as the regulator of choice when it comes to investigatingp53 inhibition.\n(§2) Different prepared derivatives 4–6 were evaluated for their inhibitory potential against p53 ubiquitination according to the previously reported procedure."}, "[4]": {"system": "p53 ubiquitination", "experiment": "In vitro p53 ubiquitination inhibition", "assay_type": "biochemical", "text": "as §1, §2"}}, "data": [{"smiles": "CC(=NNC(=O)C(CC(C)C)NC(=O)C(Cc1ccccc1)NC(=O)c1cncc(C(=O)NC(Cc2ccccc2)C(=O)NC(CC(C)C)C(=O)NN=C(C)c2ccc([N+](=O)[O-])cc2)c1)c1ccc([N+](=O)[O-])cc1", "note": "(centres unmarked) [5e, N^3,N^5-Bis{1-[(4-methyl-1-(2-(1-(4-nitrophenyl)ethylidene)hydrazinyl)-1-oxopentan-2-yl)-amino]-1-oxo-3-phenylpropan-2-yl}pyridine-3,5-dicarboxamide]", "values": [{"measurement": "IC50", "setting": "[1]; recombinant human LDHA", "result": "141.6 ± 0.98", "unit": "µM"}, {"measurement": "fold increase in LDHA inhibitory activity compared with galloflavin", "setting": "[1]; vs galloflavin", "result": "~1.14", "unit": "fold"}, {"measurement": "decrease in tumor growth", "setting": "[2]", "result": 74.2, "unit": "%"}]}, {"smiles": "CC(=NNC(=O)C(CC(C)C)NC(=O)C(Cc1ccccc1)NC(=O)c1cncc(C(=O)NC(Cc2ccccc2)C(=O)NC(CC(C)C)C(=O)NN=C(C)c2ccccn2)c1)c1ccccn1", "note": "(centres unmarked) [4a, N^3,N^5-Bis{1-[(4-methyl-1-oxo-1-(2-(1-(pyridin-2-yl)ethylidene)hydrazinyl)pentan-2-yl)amino]-1-oxo-3-phenylpropan-2-yl}pyridine-3,5-dicarboxamide]", "values": [{"measurement": "fold higher inhibitory effect than positive control (diphenyl imidazole), in vivo p53 ubiquitination", "setting": "[3]; in vivo, vs diphenyl imidazole", "result": "~15.7", "unit": "fold"}, {"measurement": "IC50", "setting": "[3]; read-out: in vivo IC50, suppression of p53 ubiquitination", "result": "0.12 ± 0.0011", "unit": "µM"}, {"measurement": "decrease in tumor growth", "setting": "[2]", "result": 81.3, "unit": "%"}, {"measurement": "IC50", "setting": "[4]; read-out: in vitro IC50, suppression of p53 ubiquitination", "result": "21.34 ± 0.13", "unit": "µM"}, {"measurement": "fold higher inhibitory effect than positive control (diphenyl imidazole), in vitro p53 ubiquitination", "setting": "[4]; vs diphenyl imidazole", "result": "about 12.2 fold"}]}]}
